The target in one data set is T1, Human NK1 Receptor (Homo sapiens, UniProt P25103).
T1 construct: endogenous in cells; host or cells: Human lymphoma IM9 cells (whole cells)
Kind of data set: In Vitro Human NK1 Receptor Binding Assay ([125I]Bolton-Hunter substance P displacement, IM9 cells). The procedure, abridged:
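Radioligand displacement on whole IM9 human lymphoma cells (2.5×10^6 cells/mL) using [125I]Bolton-Hunter substance P (0.05-0.1 nM), 50 min at 21° C in Tris pH 7.4/MnCl2 buffer with protease inhibitors. Non-specific binding defined by […] [Sar9, Met(O2)11] substance P. Filtration, gamma counting, iterative curve fitting.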

[1] abbreviates: Human lymphoma IM9 cells, [125I]Bolton-Hunter substance P (0.05-0.1 nM), 50 min at 21° C., Table 1, read-out: NK1 binding IC50.
Setting [2] is: Table 5, [125I]Bolton-Hunter substance P displacement, human IM9 cells, read-out: IC50 (nM) hNK1.

Here are results for 19 compounds from patent publication US6472418B1, “Non-peptide NK1 receptors antagonists” (Warner-Lambert Company, priority 1998, dated 2002).

Read-outs that look alike come from different tables or passages of the source.

T1 sequence (P25103 whole entry): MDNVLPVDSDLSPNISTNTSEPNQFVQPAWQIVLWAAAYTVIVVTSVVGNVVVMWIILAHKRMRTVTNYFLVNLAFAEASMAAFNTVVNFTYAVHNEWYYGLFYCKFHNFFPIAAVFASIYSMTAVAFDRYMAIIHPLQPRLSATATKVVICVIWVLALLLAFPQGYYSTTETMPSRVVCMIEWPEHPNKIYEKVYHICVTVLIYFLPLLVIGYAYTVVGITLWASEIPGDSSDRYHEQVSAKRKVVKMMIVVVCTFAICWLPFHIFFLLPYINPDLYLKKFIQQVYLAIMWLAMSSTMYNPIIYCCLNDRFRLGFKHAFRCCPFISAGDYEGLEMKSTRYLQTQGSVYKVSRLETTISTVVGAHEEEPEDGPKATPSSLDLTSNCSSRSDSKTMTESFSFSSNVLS

The compound `C[C@H](NC(=O)[C@@](C)(Cc1c[nH]c2ccccc12)NCc1cc2ccccc2o1)c1ccncc1` (relative stereo) [Example 3, 2-[(Benzofuran-2-ylmethyl)-amino]-3-(1H-indol-3-yl)-2-methyl-N-(1-pyridin-4-yl-ethyl)-propionamide, [R(R*,S*)]] displayed a melting point of 66 to 69 °C. In addition, at Human NK1 Receptor (setting [1]), the 50% inhibitory concentration (IC50) is 6 nM.
Compound `C[C@H](NC(=O)[C@@H](Cc1c[nH]c2ccccc12)NCCc1cc2ccccc2o1)c1ccccc1` (relative stereo) [Example 7, 2-(2-Benzofuran-2-yl-ethylamino)-3-(1H-indol-3-yl)-N-(1-phenyl-ethyl)-propionamide, [R-(R*,S*)]] yielded a melting point of 105 to 107 °C. Besides, on Human NK1 Receptor (setting [1]), the half-inhibitory concentration (IC50) amounted to 3.3 nM.
In turn, `C[C@H](NC(=O)[C@@H](Cc1c[nH]c2ccccc12)NCc1nc2ccccc2[nH]1)c1ccccc1` (relative stereo) [Example 9, 2-[(1H-Benzoimidazol-2-ylmethyl)-amino]-3-(1H-indol-3-yl)-N-(1-phenyl-ethyl)-propionamide, [R-(R*,S*)]] gave a melting point of 148 to 152.5 °C. Also, at Human NK1 Receptor (setting [1]), the IC50 is 112 nM.
As to `C[C@H](NC(=O)[C@@H](Cc1c[nH]c2ccccc12)NCc1cnc2ccccc2c1)c1ccccc1` (relative stereo) [Example 11, 3-(1H-Indol-3-yl)-N-(1-phenyl-ethyl)-2-[(quinolin-3-ylmethyl)-amino]-propionamide, [R-(R*,S*)]], the melting point was in the range of 161 to 163 °C. On Human NK1 Receptor (setting [1]), the half-maximal inhibitory concentration (IC50) is 46 nM.
Turning to `C[C@H](NC(=O)[C@@](C)(Cc1c[nH]c2ccccc12)NCc1cc2ccccc2o1)c1ccccc1` (relative stereo) [Example 18, 2-[(Benzofuran-2-ylmethyl)-amino]-3-(1H-indol-3-yl)-2-methyl-N-(1-phenyl-ethyl)-propionamide, [R-(R*,S*)]], the melting point fell in the range of 118 to 121 °C. Also, the IC50 at Human NK1 Receptor (setting [1]) was found to be 4.4 nM.
As for `C[C@H](NC(=O)[C@@](C)(Cc1c[nH]c2ccccc12)NCc1coc2ccccc12)c1ccccc1` (relative stereo) [Example 19, 2-[(Benzofuran-3-ylmethyl)-amino]-3-(1H-indol-3-yl)-2-methyl-N-(1-phenyl-ethyl)-propionamide, [R-(R*,S*)]], the melting point is 104 to 106 °C. For the same compound, the IC50 on Human NK1 Receptor (setting [1]) stood at 58 nM.
With `C[C@H](NC(=O)[C@@](C)(Cc1c[nH]c2ccccc12)NCc1ccc[nH]1)c1ccccc1` (relative stereo) [Example 20, 3-(1H-Indol-3-yl)-2-methyl-N-(1-phenyl-ethyl)-2-[(1H-pyrrol-2-ylmethyl)-amino]-propionamide, (R-(R*,S*)]], the melting point was 123 to 133 °C. The IC50 at Human NK1 Receptor (setting [1]) amounted to 815 nM.
In the case of `C[C@H](NC(=O)[C@@](C)(Cc1c[nH]c2ccccc12)NC(=O)NCc1cc2ccccc2o1)c1ccccc1` (relative stereo) [Example 22, 2-(3-Benzofuran-2-ylmethyl-ureido)-3-(1H-indol-3-yl)-2-methyl-N-(1-phenyl-ethyl)-propionamide, [R-(R*,S*)]], the melting point was 176 to 178 °C. The concentration for half-maximal inhibition (IC50) at Human NK1 Receptor (setting [1]) is 2.9 nM.
On to `CC(NC(=O)[C@@](C)(Cc1c[nH]c2ccccc12)NCc1cc2ccccc2o1)c1ccn(C)c1` (stereo in doubt) [Example 2, 2-[(Benzofuran-2-ylmethyl)-amino]-3-(1H-indol-3-yl)-2-methyl-N-[1-(1-methyl-1H-pyrrol-3-yl)-ethyl]-propionamide, [R-(R*,R*)] and [R-(R*,S*)]], for which the melting point fell in the range of 53 to 57 °C. Further, on Human NK1 Receptor (setting [1]), the IC50 is 23 nM.
`CC(C)(NC(=O)[C@@](C)(Cc1c[nH]c2ccccc12)NCc1cc2ccccc2o1)c1ccccc1` [Example 1, 2-[(Benzofuran-2-ylmethyl)-amino]-3-(1H-indol-3-yl)-2-methyl-N-(1-methyl-1-phenyl-ethyl)-propionamide, (R)]: the melting point fell in the range of 57 to 62 °C. Further, the IC50 at Human NK1 Receptor (setting [1]) worked out at 591 nM.
`CN(C)C[C@H](NC(=O)[C@@](C)(Cc1c[nH]c2ccccc12)NCc1cc2ccccc2o1)c1ccccc1` [Example 4, 2-[(Benzofuran-2-ylmethyl)-amino]-N-(2-dimethylamino-1-phenyl-ethyl)-3-(1H-indol-3-yl)-2-methyl-propionamide, (R,R)] displayed a melting point of 130 to 134 °C. Moreover, the IC50 at Human NK1 Receptor (setting [1]) is 1210 nM.
The compound `C[C@](Cc1c[nH]c2ccccc12)(NCc1cc2ccccc2o1)C(=O)NCc1cccc(O)c1` [Example 5, 2-[(Benzofuran-2-ylmethyl)-amino]-N-(3-hydroxy-benzyl)-3-(1H-indol-3-yl)-2-methyl-propionamide, R] had a melting point of 60 to 69 °C. At Human NK1 Receptor (setting [1]), the IC50 is 295 nM.
`C[C@H](NC(=O)[C@@H](Cc1c[nH]c2ccccc12)NCc1cc2ccccc2s1)c1ccccc1` [Example 10, 2-[(Benzo[b]thiophen-2-ylmethyl)-amino]-3-(1H-indol-3-yl)-N-(1-phenyl-ethyl)-propionamide]: the melting point lay within 102 to 108 °C. Further, the IC50 on Human NK1 Receptor (setting [1]) worked out at 51 nM.
For `CC(NC(=O)C(Cc1c[nH]c2ccccc12)NCc1cccc(F)c1)c1ccccc1` (centres unmarked) [compound 401], the IC50 at Human NK1 Receptor (setting [2]) came to 39 nM.
For `CC(NC(=O)C(Cc1c[nH]c2ccccc12)NCc1ccoc1)c1ccccc1` (centres unmarked) [compound 402], the IC50 on Human NK1 Receptor (setting [2]) is 881 nM.
`CC(NC(=O)C(Cc1c[nH]c2ccccc12)NCCCc1ccccc1)c1ccccc1` (centres unmarked) [compound 403]: the 50% inhibitory concentration (IC50) at Human NK1 Receptor (setting [2]) was 3910 nM.
Turning to `CC(NC(=O)C(Cc1c[nH]c2ccccc12)NCc1ccsc1)c1ccccc1` (centres unmarked) [compound 404], the half-maximal inhibitory concentration (IC50) on Human NK1 Receptor (setting [2]) turned out to be 2390 nM.
Turning to `CC(NC(=O)C(Cc1c[nH]c2ccccc12)NCc1ccco1)c1ccccc1` (centres unmarked) [compound 405], the half-inhibitory concentration (IC50) on Human NK1 Receptor (setting [2]) is 429 nM.
Consider “Toluene-4-sulfonic acid 3-{[2-(1H-indol-3-yl)-1-methyl-1-(1-phenyl-ethylcarbamoyl)-ethylamino]-methyl}-phenyl ester [compound 342]”, for which the half-inhibitory concentration (IC50) on Human NK1 Receptor (Table 4, [125I]Bolton-Hunter substance P displacement, human IM9 cells, read-out: IC50 (nM) hNK1) was found to be 5090 nM.
